# According to patent US20030135033A1, “Compounds and methods for the identification and/ or validation of a target” (priority 2002, published 2003):
# d = 2'-deoxy (DNA); m = 2'-O-methyl
# Assays:
# [1] = test system: MEK; test: Akt phosphorylation induced by PTEN GeneBlocs in 3Y1 cells in presence of MEK inhibitor; type: cell-based, rat; conditions: 30 nM PTEN 53 or 57, 48 h, 50 μM PD98059 30 min before lysis
# Procedure: In this experiment two different antisense oligonucleotides (PTEN 53 and PTEN 57) were used together with further compounds, namely DMSO (D), Ly294002 (Ly) and PD98059 (PD) being an inhibitor for MEK-½ kinase. More particularly, the first test was carried out using the antisense oligonucleotide PTEN 53 in combination either with DMSO, LY or PD. The same experiment was carried out using PTEN 57 also directed against PTEN mRNA, and using GBC as defined above as a control antisense oligonucleotide. More particularly, 3Y1 cells on 10 cm plates were transfected in triplicates with 30 nM of the GeneBlocs PTEN 53, 57 or with GBC for 48 h. 30 min before lysis the cells were treated with 10 μM PI 3-kinase inhibitor LY294002 (LY), 50 μM MEK inhibitor PD98059 (PD) or with the vehicle DMSO (D). The positions of p110, phosphorylated Akt (P*-Akt) and PTEN are indicated on the right. […]
# Pools of stably transfected HeLa cells in growth medium were stimulated with 200 nM 4-OHT in dimethylsulfoxide (DMSO) or with DMSO at 37° C. for 20 h. In experiments in which the effect of LY294002 or PD98059 was analyzed, the reagents were added in DMSO at 10 μg/ml or 50 μg/ml 30 min to 1 h before lysis. […]
# [2] = test system: Hela cells; test: Cell growth on matrigel; type: cell-based, human; conditions: 48 h transfection, then 48 to 72 h on matrigel, versus control GeneBloc
# From the text: More particularly, a schematic pathway with PTEN inhibiting PI-3K activity is shown which would normally phosphorylate Akt thus leading to proliferation, survival and migration of HeLa cells as a model system for PTEN +/+ cells. FIG. 9 B presents the Western immunoblot analysis of an experiment studying the influence of PTEN specific antisense oligonucleotide or a control antisense nucleotide designated as mismatch GeneBloc™. PTEN is only present in the control sample, but is absent when PTEN-specific antisense oligonucleotides are used. The successful knockdown of PTEN causes phosphorylation of Akt, indicative of induction of the signalling pathway. […] Growth on matrigel is used as a surrogate in vitro assay for metastatic or invasive cell growth. […]
# Loss of PTEN function has been correlated with an increased metastatic growth potential in late stage human cancers (Cantley, L. C. and Neel, B. G. (1999). New insights into tumor suppression: PTEN suppresses tumor formation by restraining the phosphoinositide 3-kinase/AKT pathway. Proc Natl Acad Sci U S A 96, 4240-4245; Ali, I. U. (2000). Gatekeeper for endometrium: the PTEN tumor suppressor gene. J Natl Cancer Inst 92, 861-863). […] HeLa cells expressing an inducible version of a constitutively active PI 3-kinase, p110* […] were analyzed in parallel. […]
# [3] = test system: PI 3-kinase; test: Akt phosphorylation induced by PTEN GeneBlocs in 3Y1 cells in presence of PI 3-kinase inhibitor; type: cell-based, rat; conditions: 30 nM PTEN 53 or 57, 48 h, 10 μM LY294002 30 min before lysis
compound,measurement,setting,value
COc1cccc(-c2cc(=O)c3ccccc3o2)c1N [PD98059],increase in Akt phosphorylation induced by the PTEN GeneBlocs,[1],had no effect
"cuggaucAGAGTCAGTgguguca (CUGGAUCAGAGTCAGTGGUGUCA; sugars from the 5' end m7 d9 m7, backbone and methylation of C not given here; DNA gap phosphorothioate-linked, ends capped, inverted abasic or similar, further chemistry not fully specified) [PTEN 52, third generation antisense oligonucleotide (GeneBloc) against PTEN]",growth on matrigel,[2],increased potential to form network structures on matrigel and grew better
"O=c1cc(N2CCOCC2)oc2c(-c3ccccc3)cccc12 [LY294002, 2-(4-morpholinyl)-8-phenylchromone]",increase in Akt phosphorylation induced by the PTEN GeneBlocs,[3],completely abrogated
